Earlier results in patent US12220388B2, “Uses of curcuminoid compositions” (Givaudan France Naturals SAS, priority 2018, dated 2025).

Tested on: Caco-2 cells

SMILES: COc1cc(/C=C/C(=O)CC(=O)/C=C/c2ccc(O)c(OC)c2)ccc1O [curcumin]
- predicted absorption in humans (from correlation of Caco-2 Papp with human absorption in vivo): 0-20%
- Papp (apparent permeability coefficient) (in vitro human intestinal cells model): 0.1 ×10⁻⁶ cm/s
